Results as given in ChEMBL document CHEMBL1141758, “Gesashidine A, a beta-carboline alkaloid with an imidazole ring from a Thorectidae sponge” (J Nat Prod, 2005).
Calls of active or inactive are those of the source. The rule behind the calls is not given here.

Assays:
Micrococcus luteus = experiment: Antimicrobial activity against Micrococcus luteus; format: functional
L1210 = experiment: Cytotoxicity against mouse L1210 cells; format: functional, cell-based
KB = experiment: Cytotoxicity against human KB cells; format: functional, cell-based

| Structure (SMILES) | Activity (Micrococcus luteus) | MIC (Micrococcus luteus) [µg/mL] | IC50 (L1210) [µg/mL] | IC50 (KB) [µg/mL] |
| --- | --- | --- | --- | --- |
| CSc1c(C(=O)c2nc(C(=O)[O-])cc3c2[nH]c2ccc(O)cc23)n(C)c[n+]1C | inactive | – | – | – |
| CSc1c(Cc2nc(C(=O)[O-])cc3c2[nH]c2ccc(O)cc23)n(C)c[n+]1C | inactive | – | – | – |
| CSc1c(Cc2nccc3c2[nH]c2ccc(O)cc23)n(C)c[n+]1C [GESASHIDINE A] | – | 16.6 | > 10 | > 10 |
